Experimental data from US11407812B2, “Targeted expression of chloride channels and methods of use thereof” (GOLEINI INC., priority 2015, dated 2022).

Key:
[1] = system: SNI model of neuropathic pain in the rat; assay: Spared nerve injury (SNI) model of neuropathic pain, von Frey withdrawal threshold (Example 5); type: in vivo; details: for withdrawal threshold / reduction of the allodynic response: Control vector animals
From the text: Under isoflurane anesthesia the skin on the lateral surface of the thigh was incised and a section made directly through the biceps femoris muscle exposing the sciatic nerve and its three terminal branches: the sural, common peroneal and tibial nerves. The SNI procedure comprised an axotomy and ligation of the tibial and common peroneal nerves leaving the sural nerve intact. The common peroneal and the tibial nerves were tight-ligated with 5.0 silk and sectioned distal to the ligation, removing 2±4 mm of the distal nerve stump. Great care was taken to avoid any contact with or stretching of the intact sural nerve. Muscle and skin were closed in two layers (Decosterd I. and Woolf C. (2000) Pain 87(2):149-158). In the current study this was considered as Day 0.
Testing was performed during the day portion of the circadian cycle only (06:00-18:00 h). Rats were placed in an inverted plastic cage on an elevated wire mesh platform which allowed full access to the paws. Behavioral accommodation was allowed for approximately 15 min, until cage exploration and major grooming activities ceased. The area tested was the lateral region of the plantar left hind paw, in the sural nerve distribution, avoiding the less sensitive tori (footpads). The paw was touched with 1 of a series of 8 von Frey filaments with logarithmically incremental stiffness (0.41, 0.70, 1.20, 2.00, 3.63, 5.50, 8.50, and 15.10 g) (Stoelting). The von Frey filament was presented perpendicular to the plantar surface with sufficient force to cause slight buckling against the paw, and held for approximately 6-8 s. Stimuli were presented at intervals of several seconds, allowing for apparent resolution of any behavioral responses to previous stimuli. A positive response was noted if the paw was sharply withdrawn. Flinching immediately upon removal of the hair was also considered a positive response. Ambulation was considered an ambiguous response, and in such cases the stimulus was repeated. Based on observations on normal, un-operated rats, the cut-off of a 15.10 g filament (˜10% of the body weight of the smaller rats) was selected as the upper limit for testing, since stiffer filaments tended to raise the entire limb rather than to buckle, substantially changing the nature of the stimulus (Chaplan S. et al. (1994) J Neurosci Methods 53(1): 55-63).
One day prior to the surgery (Day −1) animals were tested for their baseline response to mechanical stimulation (mechanical sensitivity). At 10 days post-surgery all animals were re-tested for their mechanical sensitivity.
At days 13, 22 and 35 post-treatment (days 23, 32 and 45 post-surgery) animals were re-evaluated for their mechanical sensitivity. For all of these measurements the operator was blinded as to the identity of the animals.
At day 36 post-treatment (day 46 post-surgery) the animals were dosed with gabapentin (100 mg/kg: IP). At 1 hour and 2 hours post-gabapentin administration the animals were evaluated for their sensitivity to mechanical stimulation.
The 50% withdrawal threshold was determined using the up-down method of Dixon (Chaplan S. et al. (1994) J Neurosci Methods 53(1):55-63; Dixon W J. (1980) Ann. Rev. Pharmacol. Toxicol. 20:441-462). In this paradigm, testing was initiated with the 2.0 g filament, in the middle of the series. Stimuli were always presented in a consecutive fashion, whether ascending or descending. In the absence of a paw withdrawal response to the initially selected filament, a stronger stimulus was presented; in the event of paw withdrawal, the next weaker stimulus was chosen. According to Dixon, optimal threshold calculation by this method requires 6 responses in the immediate vicinity of the 50% threshold. Since the threshold is not known, strings of similar responses may be generated as the threshold is approached from either direction.

[2] = system: GlyR; details: read-out: EC50 for gating of GlyR; cited from earlier work
[3] = in vivo; cited from earlier work
[4] = target: T1, GlyR α-subunit (hGlyRa1) (Homo sapiens, UniProt P23415); assay: FLIPR membrane potential assay in HEK-293 cells expressing hGlyRa1; type: cell-based
T1 construct: P2A-mEYFP (C); host or cells: HEK-293
T1 sequence (P23415 29-457): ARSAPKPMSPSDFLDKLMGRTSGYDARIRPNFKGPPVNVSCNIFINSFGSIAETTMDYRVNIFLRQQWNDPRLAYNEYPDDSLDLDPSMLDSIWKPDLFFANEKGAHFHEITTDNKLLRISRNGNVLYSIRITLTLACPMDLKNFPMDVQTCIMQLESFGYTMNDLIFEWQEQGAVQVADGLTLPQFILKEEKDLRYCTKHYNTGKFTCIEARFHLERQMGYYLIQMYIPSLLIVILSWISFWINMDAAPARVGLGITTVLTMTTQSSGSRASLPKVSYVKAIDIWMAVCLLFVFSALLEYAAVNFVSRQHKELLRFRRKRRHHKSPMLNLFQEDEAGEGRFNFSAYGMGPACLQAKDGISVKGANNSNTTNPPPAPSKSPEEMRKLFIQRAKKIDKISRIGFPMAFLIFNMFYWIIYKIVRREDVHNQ
Procedure: For FlexStation assays, HEK-293 cells were plated at 20,000 cells/well, with a plating volume of 100 μl/well, in a black-sided/clear-bottomed 96-well imaging plate (BD Falcon #353219). For transfection, […] in 750 μl Opti-MEM (Gibco 31985-070) was mixed with 30 μl ExpressFect in 750 μl Opti-MEM, pre-incubated for 20 minutes, and then added at 15 μl/well to cells containing 100 μl fresh culture media. Cells were transfected 24 hours after plating and assayed 48 hours after transfection.
A fluorescence-based assay employing the FLIPR Membrane Potential Assay Kit, BLUE formulation, (Molecular Devices, #R8042) was used to detect voltage changes across the cell membrane. Dye loading buffer was prepared according to package literature. Specifically, the contents of one vial of BLUE reagent was dissolved with 5 ml of 1×Assay Buffer, followed by a wash of the vial with another 5 ml of 1× Assay Buffer, to yield a total volume of 10 ml of dye loading buffer. Unused portions of dye loading buffer were stored at −20° C. and used within 5 days. […] Cells were then loaded with 50 μl of Blue dye loading buffer and incubated for 40 min at 37° C./5% CO2. The signal was detected using the FlexStation 3 multimode benchtop microplate reader operated by SoftMax Pro Data Acquisition & Analysis Software (Molecular Devices). Excitation and emission wavelengths were set at 530 nm and 565 nm, respectively, with an emission cut-off of 550 nm. Plate reads were performed at 30° C. with a ‘Low PMT’ setting. […] Other FlexStation parameters included a pipette height of 130 an initial well volume of 100 μl, a transfer volume of 50 μl (therefore, drug concentrations were prepared 3×), and a transfer rate setting of 2, corresponding to ˜31 μl/sec.

[5] = system: wild-type α-subunit of the GluCl glutamate receptor; assay: FLIPR membrane potential assay in HEK-293 cells expressing wild-type GluCl α-subunit; type: cell-based, Caenorhabditis elegans
Procedure: Cells were transfected 24 hours after plating and assayed 48 hours after transfection.
A fluorescence-based assay employing the FLIPR Membrane Potential Assay Kit, BLUE formulation, (Molecular Devices, #R8042) was used to detect voltage changes across the cell membrane. Dye loading buffer was prepared according to package literature. Specifically, the contents of one vial of BLUE reagent was dissolved with 5 ml of 1× Assay Buffer, followed by a wash of the vial with another 5 ml of 1× Assay Buffer, to yield a total volume of 10 ml of dye loading buffer. Unused portions of dye loading buffer were stored at −20° C. and used within 5 days. For the functional assay, culture medium was removed from the cells and replaced with 50 DMEM. Cells were then loaded with 50 μl of Blue dye loading buffer and incubated for 40 min at 37° C./5% CO2. The signal was detected using the FlexStation 3 multimode benchtop microplate reader operated by SoftMax Pro Data Acquisition & Analysis Software (Molecular Devices). Excitation and emission wavelengths were set at 530 nm and 565 nm, respectively, with an emission cut-off of 550 nm. Plate reads were performed at 30° C. with a ‘Low PMT’ setting. Run times, of which the first 20 s measured basal fluorescence, were 300 s for ivermectin-induced signals. […]

[6] = target: T2, L9′A mutated GluCl α-subunit (GluCl*) (Caenorhabditis elegans, UniProt G5EBR3, L315A); type: cell-based; details: increasing doses of ivermectin, cells expressing GluCl*
T2 construct: expressed in transfected cells; host or cells: HEK-293
T2 sequence (G5EBR3 21-461 L315A): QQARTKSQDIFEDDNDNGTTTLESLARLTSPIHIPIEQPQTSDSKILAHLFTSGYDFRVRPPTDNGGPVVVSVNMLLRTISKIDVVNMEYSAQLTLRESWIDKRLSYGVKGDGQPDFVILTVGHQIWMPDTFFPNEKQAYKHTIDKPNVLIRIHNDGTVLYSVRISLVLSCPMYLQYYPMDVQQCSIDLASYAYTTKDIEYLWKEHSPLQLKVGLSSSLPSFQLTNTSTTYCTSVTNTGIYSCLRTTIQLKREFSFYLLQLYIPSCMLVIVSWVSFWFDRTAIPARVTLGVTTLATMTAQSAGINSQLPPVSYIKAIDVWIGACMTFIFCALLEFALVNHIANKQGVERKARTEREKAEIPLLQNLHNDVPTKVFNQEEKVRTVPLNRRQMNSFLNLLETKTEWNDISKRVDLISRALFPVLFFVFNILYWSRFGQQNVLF

[7] = system: HEK-293 cells; type: cell-based, human; details: 48 hours post-transfection
Procedure: […]. […] […]. […] Five separate wells were evaluated for each condition (un-transfected, mock-transfected, GluCl and GluCl*).

[8] = system: Human airway smooth muscle (HASM) cells; assay: Histamine-induced increase in intracellular Ca++ (Fluo 8); type: cell-based
Procedure: Human airway smooth muscle (HASM) cells were derived from tracheas obtained from the National Disease Research Interchange (Philadelphia, Pa., USA) and from the International Institute for the Advancement of Medicine (Edison, N.J., USA). The cells were cultured in Ham's F-12 medium supplemented with 10% FBS, 100 U mL^−1 penicillin, 0.1 mg mL^−1 streptomycin and 2.5 mg mL^−1 amphotericin B, and this medium was replaced every 72 h. HASM cells in subculture during passages 1-5 were used, because these cells retain the expression of native contractile protein. The HASM cells were derived from healthy normal donors.
Cells were serum starved for 24 hr and loaded with Fluo 8 calcium sensing dye for 1 hr prior to stimulation with histamine. […] All data from both studies is expressed as relative fluorescent units.

## NCC1(CC(=O)O)CCCCC1 [Gabapentin]
[1]; 1 hour post dose, 100 mg/kg IP
  withdrawal threshold: 3.44 ± 0.36 g
[1]; 1 hour post-dose, 100 mg/kg IP
  reduction of the allodynic response: 25%
[1]; 2 hours post dose, 100 mg/kg IP
  withdrawal threshold: 4.15 ± 0.19 g
[1]; 2 hours post-dose, 100 mg/kg IP
  reduction of the allodynic response: 44%
[1]; pre-dose, day 46 post-surgery
  withdrawal threshold: 2.46 ± 0.49 g
[1]; rat, in vivo
  effect on response to mechanical stimulation in animals previously treated with GTX-01*: no effect

## NCC(=O)O [Glycine]
[2]
  EC50: ~100 µM
[3]
  half-life in the body: 26 to 245 min
[4]; HEK-293 cells expressing hGlyRa1
  EC100 of change in membrane potential: approximately 300 μM

## NCCS(=O)(=O)O [Taurine]
[4]; taurine 1 μM to 1 mM, monomeric hGlyRa1 channel
  effect on membrane potential: no direct effect

## Ivermectin
[5]; HEK-293 cells expressing wild-type GluCl α-subunit alone, 4.5 minutes post addition, read-out: EC50 of change in membrane potential
  EC50: 147 nM
[6]
  effect of ivermectin on change in membrane potential: did not augment the change in membrane potential

B1: wild-type GluCl α-subunit: fluorescently tagged Caenorhabditis elegans GluCl α-subunit, wild type, expressed from plasmid (protein, UniProt G5EBR3 21-461, looked up)
Glutamate-gated chloride …: QQARTKSQDIFEDDNDNGTTTLESLARLTSPIHIPIEQPQTSDSKILAHLFTSGYDFRVRPPTDNGGPVVVSVNMLLRTISKIDVVNMEYSAQLTLRESWIDKRLSYGVKGDGQPDFVILTVGHQIWMPDTFFPNEKQAYKHTIDKPNVLIRIHNDGTVLYSVRISLVLSCPMYLQYYPMDVQQCSIDLASYAYTTKDIEYLWKEHSPLQLKVGLSSSLPSFQLTNTSTTYCTSVTNTGIYSCLRTTIQLKREFSFYLLQLYIPSCMLVIVSWVSFWFDRTAIPARVTLGVTTLLTMTAQSAGINSQLPPVSYIKAIDVWIGACMTFIFCALLEFALVNHIANKQGVERKARTEREKAEIPLLQNLHNDVPTKVFNQEEKVRTVPLNRRQMNSFLNLLETKTEWNDISKRVDLISRALFPVLFFVFNILYWSRFGQQNVLF
[7]
  cell viability: 91.8%
[5]; no agonist, monomeric expression in HEK-293
  unstimulated change in membrane potential: no unstimulated change in membrane potential

B2: hGlyRa1 (protein, listed as Homo sapiens)
chain: MYSFNTLRLYLWETIVFFSLAASKEAEAARSAPKPMSPSDFLDKLMGRTSGYDARIRPNFKGPPVNVSCNIFINSFGSIAETTMDYRVNIFLRQQWNDPRLAYNEYPDDSLDLDPSMLDSIWKPDLFFANEKGAHFHEITTDNKLLRISRNGNVLYSIRITLTLACPMDLKNFPMDVQTCIMQLESFGYTMNDLIFEWQEQGAVQVADGLTLPQFILKEEKDLRYCTKHYNTGKFTCIEARFHLERQMGYYLIQMYIPSLLIVILSWISFWINMDAAPARVGLGITTVLTMTTQSSGSRASLPKVSYVKAIDIWMAVCLLFVFSALLEYAAVNFVSRQHKELLRFRRKRRHHKSPMLNLFQEDEAGEGRFNFSAYGMGPACLQAKDGISVKGANNSNTTNPPPAPSKSPEEMRKLFIQRAKKIDKISRIGFPMAFLIFNMFYWIIYKIVRREDVHNQ
[8]
  effect on histamine-induced increase in intracellular Ca: antagonized
[4]
  unstimulated change in membrane potential: no unstimulated change in membrane potential
